From patent US20090011950A1, “METHOD FOR DETECTING ORAL SQUAMOUS-CELL CARCINOMA AND METHOD FOR SUPPRESSING THE SAME” (priority 2007, published 2009)

Tests used:
[1] = test system: PRTFDC1 gene expression in oral squamous-cell carcinoma cell lines not expressing the PRTFDC1 gene; experiment: RT-PCR of PRTFDC1 gene expression after treatment with demethylating reagent or deacetylation inhibitory agent; format: cell-based; details: oral squamous-cell carcinoma cells (NA, HSC-2, ZA)
Experimental: (d) Oral squamous-cell carcinoma cells (NA, HSC-2, and ZA) were treated (+) or not treated (−) with 5-aza-dCyd ([…]) for 5 days or with TSA ([…]) for 24 hours. The results of RT-PCR analysis on the PRTFDC1 gene in the oral squamous-cell carcinoma cells are shown.
To examine the expression levels of the 6 above genes (the PRTFDC1 gene, the e10orf6 gene, the THNSL1 gene, the GPR158 gene, the MYO3A gene, and the GAD2 gene), 18 types of oral squamous-cell carcinoma cell line and normal oral epithelium cells were subjected to reverse transcriptase (RT)-PCR. Specifically, a single-chain cDNA was synthesized from the RNA extracted from each cultured cell line using the SuperScript First-Strand Synthesis System (Invitrogen). PCR was then performed using primer sequences listed in Table 4 (supplementary Table 1). Moreover, a glyceraldehyde-3-phosphate dehydrogenase (GAPDH) gene was used as a control. As a result, complete disappearance of PRTFDC1 mRNA expression could be confirmed in 8 cell lines in which homozygous deletion of chromosomal region 10p12 should not have taken place, as in the case of HSC-6 cells (FIG. 2c). […] Such disappearance of PRTFDC1 mRNA expression in the oral squamous-cell carcinoma cell lines may be due to a mechanism other than genomic deletion, such as an epigenetic phenomenon.
To examine if the suppressed expression of the PRTFDC1 gene was due to DNA methylation, oral squamous-cell carcinoma cell lines not expressing the PRTFDC1 gene were treated using a 1 μM or 5 μM demethylating reagent 5—aza—dCyd for 5 days and/or using deacetylation inhibitory agent TSA (100 ng/ml) for 24 hours. RNAs were extracted from these cells and then PRTFDC1 gene expression was examined by RT-PCR (FIG. 2d).

[2] = test system: CpG islands of the PRTFDC1 gene; experiment: Demethylation of CpG islands by culturing oral squamous-cell carcinoma cells with demethylating reagent; format: cell-based; details: oral squamous-cell carcinoma cells cultured in the presence of the reagent

| Compound | PRTFDC1 gene expression (RT-PCR) ([1]; 5-aza-dCyd 1 μM or 5 μM for 5 days) | PRTFDC1 gene expression (RT-PCR) ([1]; 5-aza-dCyd 1 μM or 5 μM for 5 days, listed as 5-azadeoxycytidine) | demethylation of CpG islands [2] | PRTFDC1 gene expression (RT-PCR) ([1]; TSA 100 ng/ml for 24 hours) |
| --- | --- | --- | --- | --- |
| Nc1ncn([C@H]2C[C@H](O)[C@@H](CO)O2)c(=O)n1 [5-aza-dCyd, 5-azadeoxycytidine] | recovers its gene expression | possible to recover the expression level | possible to demethylate | – |
| CC(/C=C/C(=O)NO)=C\[C@@H](C)C(=O)c1ccc(N(C)C)cc1 [TSA] | – | – | – | no differences |
